Source: patent US9487479B2, “Small molecule inhibitors of N-terminus activation of the androgen receptor” (The University of British Columbia, priority 2008, dated 2016)

Tests used:
[1] = biological target: T1, AR NTD-Gal4DBD chimera protein (Gal4DBD-AR1-558) (Homo sapiens, UniProt P10275); assay: FSK-induced transactivation of the AR NTD (Gal4-luciferase reporter in LNCaP cells); assay type: cell-based; settings: 5 μg/ml, 1 hr pretreatment, FSK 50 μM for 24 h
T1 construct: co-transfected with the expression vector for Gal4DBD-AR1-558; expressed in transfected cells; host or cells: LNCaP cells
T1 sequence (P10275 1-558): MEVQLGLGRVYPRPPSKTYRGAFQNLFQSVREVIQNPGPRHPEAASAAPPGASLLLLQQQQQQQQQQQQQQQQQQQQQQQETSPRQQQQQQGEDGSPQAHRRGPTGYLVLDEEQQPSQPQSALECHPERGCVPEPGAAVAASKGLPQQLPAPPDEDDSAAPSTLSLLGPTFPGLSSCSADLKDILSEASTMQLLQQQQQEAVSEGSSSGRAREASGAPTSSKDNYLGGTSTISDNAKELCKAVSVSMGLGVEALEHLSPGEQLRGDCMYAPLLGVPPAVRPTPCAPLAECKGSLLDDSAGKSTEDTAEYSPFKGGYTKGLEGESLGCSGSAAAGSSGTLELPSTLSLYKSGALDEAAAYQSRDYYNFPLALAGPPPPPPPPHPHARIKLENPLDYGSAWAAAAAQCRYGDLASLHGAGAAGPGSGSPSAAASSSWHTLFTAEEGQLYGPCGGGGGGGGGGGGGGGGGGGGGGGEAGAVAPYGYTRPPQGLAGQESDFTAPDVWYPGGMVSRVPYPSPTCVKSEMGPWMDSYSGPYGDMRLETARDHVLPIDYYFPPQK
Description: Sintokamide A (CB3.1) (5 μg/ml) was tested for its ability to inhibit the AR NTD. LNCaP cells were co-transfected with the expression vector for Gal4DBD-AR1-558 and the complimentary 5XGal4UAS-luciferase reporter. Induction of this reporter by FSK is a measure of transactivation of the Gal4DBD-AR1-558 fusion protein (Sadar 1999 J. Biol. Chem. 274, 7777-7783).
To determine if CB3.1 blocked transactivation of the AR NTD, LNCaP cells were transfected with the plasmids for the AR NTD-Gal4DBD chimera protein and the Gal4-luciferase reporter and pretreated for 1 hr with CB3.1 (5 μg/ml) prior to addition of forskolin (FSK 50 μM) for an additional 24 h (see: Sadar et al. (1999) J. Biol. Chem. 274:7777-83).

[2] = Animal body weight during the LNCaP xenograft experiment; assay type: in vivo, mice
Description: The subcutaneous xenograft model was used to test whether sintokamides that inhibit activation of the androgen receptor in vitro have any effect on these tumors. CB3.1 was tested in vivo using the LNCaP subcutaneous xenograft model. […] LNCaP human prostate cancer cells express endogenous androgen receptor (AR) and prostate-specific antigen (PSA), and progress to androgen independence in castrated hosts. LNCaP cells (10^6/ml) were implanted subcutaneously into NOD-SCID male mice that were at least 8 weeks in age. The cells were suspended in 75 μl of RPMI medium 1640 (5% FBS) with 75 μl of Matrigel and injected into the flank region of the host under anesthesia. LNCaP cells were implanted subcutaneously into NOD-SCID male mice and the animals were castrated when the tumors were approximately 100 mm^3 (mean=[…]; n=18) and randomized into two groups. One week after castration the animals were treated every 3 days with an intratumoral dose of 30 mg/kg body weight of CB3.1 or matching volume of vehicle (control, DMSO). […] Fifteen days after the first injection of CB3.1, the tumors were 111.81%±38.12 the tumor volume on the day of the 1st injection. While 15 days after injection of DMSO, the tumors were 180.27%±111.67 the tumor volume on the day of the 1st injection. Serum PSA provides an indication of prognosis. For animals receiving CB3.1, serum PSA was 98.47%±170.51 on day 15 after the 1st injection. […] Tumor volume and serum PSA values were consistent with CB3.1 reducing tumor burden and serum PSA compared to vehicle-treated animals.

LNCaP cells [3] = assay: Cytotoxicity: cell morphology of treated LNCaP cells; assay type: cell-based, human; settings: LNCaP cells treated for 48 h, 10 μM
From the text: From this extract, the pure active compound, Sintokamide A (CB3.1) was isolated and to ensure that the inhibitory effect of CB3.1 was not due to generally cytotoxicity, cell morphology of LNCaP cells was examined. […] Cells treated with R1881 are also shown to provide an indication of cell number and for comparison.

LNCaP cells [4] = assay: Androgen-dependent proliferation of LNCaP cells (BrdU incorporation); assay type: cell-based, human; settings: 5 μg/ml, 1 hr before R1881 0.1 nM, 3 days
Description: (§1) BrdU incorporation was measured 3 days later to indicate changes in proliferation in response to androgen (see FIG. 3B).

PC3 cells = assay: Proliferation of PC3 cells (BrdU incorporation); assay type: cell-based, human; settings: 5 μg/mL
From the text: LNCaP cells were employed initially for all experiments because they are well-differentiated human prostate cancer cells in which ligand-independent activation of the AR by FSK has been characterized (Nazareth et al 1996 J. Biol. Chem. 271, 19900-19907; and Sadar 1999 J. Biol. Chem. 274, 7777-7783). LNCaP cells express endogenous AR and secrete prostate-specific antigen (PSA) (Horoszewicz et al 1983 Cancer Res. 43, 1809-1818). LNCaP cells can be grown either as monolayers in cell culture or as tumors in the well-characterized xenograft model that progresses to androgen independence in castrated hosts (Sato et al 1996 J. Steroid Biochem. Mol. Biol. 58, 139-146; Gleave et al 1991 Cancer Res. 51, 3753-3761; Sato et al 1997 Cancer Res. 57, 1584-1589; and Sadar et al 2002 Mol. Cancer Ther. 1(8), 629-637). […] Small molecules that specifically target the AR-NTD should have no effect on PC3 cells. This means that they should not alter the proliferation of PC3 cells if they specifically block the AR to mediate their inhibitory effects. R1881 was employed since it is stable and avoids problems associated with the labile physiological ligand dihydrotestosterone (DHT). Reporter specificity may be determined using several alternative reporter gene constructs. […]
as §1

## CCC(=O)N[C@H](C[C@H](C)C(Cl)(Cl)Cl)C(=O)N1C(=O)C=C(OC)[C@@H]1C[C@H](C)C(Cl)Cl [CB3.1, Sintokamide A]
[1]
  FSK-induced transactivation of the AR NTD: reduced FSK-induced transactivation of the AR NTD to baseline levels
[2]; duration of the experiment, intratumoral 30 mg/kg every 3 days
  change in animal body weight: No change in animal body weight
[2]; finish of experiment, intratumoral 30 mg/kg every 3 days
  animal body weight, finish: 25.0±1.4 grams
[2]; start of experiment
  animal body weight, start: 24.6±1.1 grams
LNCaP cells [3]
  signs of toxicity (cell morphology): no obvious signs of toxicity
LNCaP cells [4]
  androgen-induced proliferation (BrdU incorporation): reduced proliferation
PC3 cells
  proliferation of PC3 cells (BrdU incorporation): did not block proliferation
